Data taken from patent US10233152B2, “LSD1 inhibitors” (Mirati Therapeutics, Inc., priority 2015, dated 2019).

Key:
[1] = test system: MV4-11 cells; assay: Inhibition of LSD1-mediated cell proliferation, CellTiter Glo luminescence assay; details: Homo sapiens, MV4-11, 168 h, read-out: Inhibition of LSD1-mediated Cell Proliferation IC50
Method: Inhibition of LSD1-mediated cellular proliferation by compounds of Formula (I) or Formula (II) was measured in a CellTiter Glo luminescence assay (Promega Corp), which determines the number of viable cells by quantitating the amount of ATP, using a BMG LabTech CLARIOStar instrument in accordance with the manufacturer's instructions. […] The plates were incubated at 37° C. for four days and thereafter 50 μl fresh medium containing the same concentration of test compound was added. The plates were incubated for an additional three days (Day 7). A baseline measurement, as described below, was taken for a time zero point at Day 0.
At Day 7, the supernatant was removed by aspiration and the plate was allowed to equilibrate to room temperature (˜15 min). The cells were lysed using 45 μl (30 μl for Day 0) of Cell Titer Glo reagent (Promega Corp). The plates were shaken for two minutes and incubated at room temperature for 30 minutes. The degree of inhibition of cell viability was determined using a spectrophotometric readout by measuring the luminescence at 340 nm and the EC50 concentration for each compound was calculated using Graph Pad Prism 4 software.

[2] = target: purified N-terminal truncated human LSD1 enzyme (aa 151-852) (Homo sapiens (Human), UniProt O60341); assay: LSD1 fluorescence coupling enzymatic assay (horseradish peroxidase/Amplex Red); assay type: biochemical; details: 50 nM LSD1, 30 min pre-incubation, histone 3.3 peptide (aa 1-21), 10-point dose-response; read-out: Inhibition of LSD1 Activity IC50
Method: Briefly, compounds of the present invention were solubilized in DMSO and a series of 10, three-fold serial dilutions were made for each compound in 15% DMSO. The initial starting concentration for the serial dilutions of each compound was 10 μM.
An aliquot of each serial dilution of test compound was added to a 96 well plate containing 50 nM purified N-truncated LSD1 enzyme (RBC Cat# PDM-11-350), 50 mM Tris-HCl, pH 7.5, 0.05% CHAPS and 1% DMSO in a 10 microliter reaction volume. The plate was pre-incubated at room temperature for 30 min to which 10 M of histone 3.3 peptide (aa 1-21) was added to initiate the enzymatic reaction. The reaction mixture was incubated at room temperature for one hour. […] The IC50 value for each compound was determined from each 10-point dose-response curve using GraphPad Prism 4 software with a sigmodial dose response.

With `Brc1ccc(NCCN2CCC(N[C@@H]3C[C@H]3c3ccccc3)CC2)cc1` [Example 33, 1-(2-((4-bromophenyl)amino)ethyl)-N-((1R,2S)-2-phenylcyclopropyl)piperidin-4-amine] the IC50 [1] was < 1 nM and the IC50 [2] was < 1 nM.

With `C[N+]1(CCOc2ccc(CC(=O)NS(C)(=O)=O)cc2)CC(CN[C@@H]2C[C@H]2c2ccccc2)C1` (stereo partly drawn) [Example 98] the IC50 [1] was > 1000 nM.
